Results: ChEMBL document CHEMBL4393657, “Tetrazole hybrids and their antifungal activities” (2019)
Converted amounts (≈) assume the structure as drawn.

What was measured:
Format in all cases: functional
Candida albicans [1] = test: Antifungal activity against Candida albicans assessed as reduction in fungal cell growth incubated for 24 and 72 hrs by cup plate method
Aspergillus flavus = test: Antifungal activity against Aspergillus flavus assessed as reduction in fungal cell growth incubated for 24 and 72 hrs by cup plate method
Fusarium oxysporum = test: Antifungal activity against Fusarium oxysporum assessed as reduction in fungal cell growth incubated for 24 and 72 hrs by cup plate method
Cryptococcus neoformans = test: Antifungal activity against Cryptococcus neoformans LA314 assessed as reduction in fungal cell growth incubated for 48 hrs by broth microdilution method; conditions: LA314, 48 h
Aspergillus niger = test: Antifungal activity against Aspergillus niger assessed as reduction in fungal cell growth incubated for 72 hrs by broth microdilution method
Candida tropicalis = test: Antifungal activity against Candida tropicalis assessed as reduction in fungal cell growth incubated for 48 hrs by broth microdilution method
Nakaseomyces glabratus = test: Antifungal activity against Candida glabrata assessed as reduction in fungal cell growth incubated for 48 hrs by broth microdilution method
Candida albicans [2] = test: Antifungal activity against Candida albicans assessed as reduction in fungal cell growth incubated for 48 hrs by broth microdilution method
Candida parapsilosis = test: Antifungal activity against Candida parapsilosis ATCC 22019 assessed as reduction in fungal cell growth incubated for 48 hrs by broth microdilution method; conditions: Lodderomyces parapsilosis, ATCC 22019, 48 h
Pichia kudriavzevii = test: Antifungal activity against Candida krusei assessed as reduction in fungal cell growth incubated for 48 hrs by broth microdilution method

Row | Compound | MIC (Candida albicans [1]) [µg/mL] | MIC (Aspergillus flavus) [µg/mL] | MIC (Fusarium oxysporum) [µg/mL] | MIC (Cryptococcus neoformans) [µg/mL] | MIC (Aspergillus niger) [µg/mL] | MIC (Candida tropicalis) [µg/mL] | MIC (Nakaseomyces glabratus) [µg/mL] | MIC (Candida albicans [2]) [µg/mL] | MIC (Candida parapsilosis) [µg/mL] | MIC (Pichia kudriavzevii) [µg/mL]
1 | CCOC(=O)C(C#N)C(c1cc2ccc(C)cc2n2nnnc12)P(=O)(OCC)OCC (configuration not stated) | 10 to 25 (≈ 22.5 to 56.1 µM) | 10 to 25 (≈ 22.5 to 56.1 µM) | 10 to 25 (≈ 22.5 to 56.1 µM) | – | – | – | – | – | – | –
2 | COc1ccc2cc(C3CC(c4cc(Br)ccc4O)=NO3)c3nnnn3c2c1 (configuration not stated) | 25 (≈ 56.8 µM) | 25 (≈ 56.8 µM) | 25 to 100 (≈ 56.8 to 227 µM) | – | – | – | – | – | – | –
3 | CC(n1nnc(CCN2CCN(C(c3ccccc3)c3ccccc3)CC2)n1)C(O)(Cn1cncn1)c1ccc(F)cc1F (configuration not stated) | – | – | – | 1 to 16 (≈ 1.67 to 26.7 µM) | 1 to 16 (≈ 1.67 to 26.7 µM) | 1 to 16 (≈ 1.67 to 26.7 µM) | 1 to 16 (≈ 1.67 to 26.7 µM) | 1 to 16 (≈ 1.67 to 26.7 µM) | 1 to 16 (≈ 1.67 to 26.7 µM) | 1 to 16 (≈ 1.67 to 26.7 µM)
4 | OC(Cn1cncn1)(Cn1nnc(CCN2CCN(C(c3ccccc3)c3ccccc3)CC2)n1)c1ccc(F)cc1F (configuration not stated) | – | – | – | 1 to 16 (≈ 1.71 to 27.3 µM) | 1 to 16 (≈ 1.71 to 27.3 µM) | 1 to 16 (≈ 1.71 to 27.3 µM) | 1 to 16 (≈ 1.71 to 27.3 µM) | 1 to 16 (≈ 1.71 to 27.3 µM) | 1 to 16 (≈ 1.71 to 27.3 µM) | 1 to 16 (≈ 1.71 to 27.3 µM)
5 | OC(Cn1cncn1)(Cn1nnc(CCN2CCN(c3ccccc3Cl)CC2)n1)c1ccc(F)cc1F (configuration not stated) | – | – | – | 1 to 16 (≈ 1.89 to 30.2 µM) | 1 to 16 (≈ 1.89 to 30.2 µM) | 1 to 16 (≈ 1.89 to 30.2 µM) | 1 to 16 (≈ 1.89 to 30.2 µM) | 1 to 16 (≈ 1.89 to 30.2 µM) | 1 to 16 (≈ 1.89 to 30.2 µM) | 1 to 16 (≈ 1.89 to 30.2 µM)
6 | CC(n1nnc(CCN2CCN(c3ccccc3)CC2)n1)C(O)(Cn1cncn1)c1ccc(F)cc1F (configuration not stated) | – | – | – | 1 to 16 (≈ 1.96 to 31.4 µM) | 1 to 16 (≈ 1.96 to 31.4 µM) | 1 to 16 (≈ 1.96 to 31.4 µM) | 1 to 16 (≈ 1.96 to 31.4 µM) | 1 to 16 (≈ 1.96 to 31.4 µM) | 1 to 16 (≈ 1.96 to 31.4 µM) | 1 to 16 (≈ 1.96 to 31.4 µM)
7 | OC(Cn1cncn1)(Cn1nnnc1CCN1CCN(c2ccccc2Cl)CC1)c1ccc(F)cc1F (configuration not stated) | – | – | – | 0.5 to 16 (≈ 0.943 to 30.2 µM) | 0.5 to 16 (≈ 0.943 to 30.2 µM) | 0.5 to 16 (≈ 0.943 to 30.2 µM) | 0.5 to 16 (≈ 0.943 to 30.2 µM) | 0.5 to 16 (≈ 0.943 to 30.2 µM) | 0.5 to 16 (≈ 0.943 to 30.2 µM) | 0.5 to 16 (≈ 0.943 to 30.2 µM)
8 | C[C@H](n1nnnc1CCN1CCN(c2ccc(Cl)cc2)CC1)[C@](O)(Cn1cncn1)c1ccc(F)cc1F | – | – | – | 0.12 to 16 (≈ 0.221 to 29.4 µM) | 0.12 to 16 (≈ 0.221 to 29.4 µM) | 0.12 to 16 (≈ 0.221 to 29.4 µM) | 0.12 to 16 (≈ 0.221 to 29.4 µM) | 0.12 to 16 (≈ 0.221 to 29.4 µM) | 0.12 to 16 (≈ 0.221 to 29.4 µM) | 0.12 to 16 (≈ 0.221 to 29.4 µM)
9 | Oc1ccc(Br)cc1C1=NNC(c2cc3ccccc3n3nnnc23)C1 (configuration not stated) | 25 to 100 (≈ 61.1 to 244 µM) | 25 to 100 (≈ 61.1 to 244 µM) | 25 to 100 (≈ 61.1 to 244 µM) | – | – | – | – | – | – | –
10 | OC(Cn1cncn1)(Cn1nnc(CCN2CCN(c3ccccn3)CC2)n1)c1ccc(F)cc1F (configuration not stated) | – | – | – | 1 to 16 (≈ 2.01 to 32.2 µM) | 1 to 16 (≈ 2.01 to 32.2 µM) | 1 to 16 (≈ 2.01 to 32.2 µM) | 1 to 16 (≈ 2.01 to 32.2 µM) | 1 to 16 (≈ 2.01 to 32.2 µM) | 1 to 16 (≈ 2.01 to 32.2 µM) | 1 to 16 (≈ 2.01 to 32.2 µM)
11 | C[C@H](n1nnnc1CCN1CCN(c2ccccc2)CC1)[C@](O)(Cn1cncn1)c1ccc(F)cc1F | – | – | – | 0.12 to 16 (≈ 0.235 to 31.4 µM) | 0.12 to 16 (≈ 0.235 to 31.4 µM) | 0.12 to 16 (≈ 0.235 to 31.4 µM) | 0.12 to 16 (≈ 0.235 to 31.4 µM) | 0.12 to 16 (≈ 0.235 to 31.4 µM) | 0.12 to 16 (≈ 0.235 to 31.4 µM) | 0.12 to 16 (≈ 0.235 to 31.4 µM)
12 | CC(n1nnc(CCN2CCN(c3ccccn3)CC2)n1)C(O)(Cn1cncn1)c1ccc(F)cc1F (configuration not stated) | – | – | – | 1 to 16 (≈ 1.96 to 31.3 µM) | 1 to 16 (≈ 1.96 to 31.3 µM) | 1 to 16 (≈ 1.96 to 31.3 µM) | 1 to 16 (≈ 1.96 to 31.3 µM) | 1 to 16 (≈ 1.96 to 31.3 µM) | 1 to 16 (≈ 1.96 to 31.3 µM) | 1 to 16 (≈ 1.96 to 31.3 µM)
